Data set [1] in a line: MTT cytotoxicity / cell viability assay. The data set is classed as cell-based. Conditions: human; MTT assay, HeLa cells, 24 h treatment, normoxic conditions; mean, n = 3. The protocol: HeLa cells were inoculated and cultured in 96-well plates. After the cells adhered to the wall, the prepared target compounds with different concentrations were added to all plates for 24 h and then cultured in 5 mg/mL MTT solution for 4 h. The culture solution in the holes was sucked out, and DMSO reagent was added. After the crystallization was fully dissolved, the absorbance at 570 nm was measured by Multiskan GO.
Background: Tetrazolium assays rely on reduction of a dye to a coloured formazan, in cell work by metabolically active cells.

Data set [2] relates to xylene-induced ear edema. In words: Xylene-induced ear edema test, initial screening (i.p.). The data set is classed as in vivo. Conditions: mice; for inhibition in vivo at 100 mg/kg: Mus musculus, ip, 0.5 h, n = 6, read-out: Inhibition Rate; for Edema Mean ± SD: 100 mg/kg, n = 6. The protocol: In vivo inhibition test of xylene induced ear edema in mice was performed to evaluate its anti-inflammatory activity.
In the initial screening, mice (male) were randomly divided into experimental group, positive control drug ibuprofen and Mesalazine group, and blank group. All target compounds were dissolved in dimethyl sulfoxide, and corresponding drugs were intraperitoneally injected into experimental group, positive control group and blank group, respectively. Mice were treated with 100 mg/kg, 0.1 mL/20 g body weight, and control mice received only DMSO (0.1 mL/20 g body weight). After 30 min, 20 μL of xy-lene was evenly applied on both sides of the right ear of the mice. After 30 min of xy-lene was applied, the mice were sacrificed by cutting off their necks. Then the left and right ears of the mice were drilled with a hole punch with a diameter of 7 mm, respec-tively, to obtain two round ear pieces. The degree of swelling (right ear mass–left ear mass) was calculated for each sample, and the swelling inhibition rate of each drug was calculated using the following formula. The inhibition rate of swelling degree (%) = (mean ear swelling degree of mice in blank group […] mean ear swelling degree of mice in target compound group)/mean ear swelling degree of mice in blank group × 100%. The data were processed by GraphPadPrism 5 and expressed as mean data ± SEM. One-way ANOVA method was used for statistical analysis of relevant data. A value of p < 0.05 in the chart indicates significant and statistically significant data dif-ference.

For data set [3], the system named is NF-κB transcriptional activity. Nature of the data set: NF-κB luciferase reporter assay in HeLa cells. The data set is classed as cell-based. Conditions: Homo sapiens, NF-κB luciferase reporter, 24 h treatment, hypoxic conditions, mean, n = 3. The protocol:
A NF-κB-Luc plasmid for NF-κB luciferase reporter assay was obtained from Strategene (La Jolla, CA, USA). Transfections were performed as previously described. NF-κB-dependent luciferase activity was measured using the Dual-luciferase reporter assay system. Briefly, HeLa cells (1 × 10^5 cells/well) were seeded in a 96-well plate for 24 h. The cells were then transfected with plasmids for each well and then incubated for a transfection period of 24 h. […] Luciferase activity was determined in MicroLumat plus luminometer (EG&G Berthold, Bad Wildbad, Germany) by injecting 100 µL of assay buffer containing luciferin and measuring light emission for 10 s. Co-transfection with pRL-CMV (Promega, Madison, WI, USA), which expresses Renilla luciferase, was performed to enable normalization of data for transfection efficiency.
In general terms: A reporter such as luciferase makes a cellular process visible.

Data set [4] deals with xylene-induced ear edema. Nature of the data set: Xylene-induced ear edema test, deep screening (oral). The data set is classed as in vivo. The following applies: mice. The protocol: In the deep screening, mice were divided into target compound group, positive control group (ibuprofen), and blank group (8 male mice in each group). Target com-pound and ibuprofen were dissolved in sodium carboxymethyl cellulose aqueous solu-tion (sodium carboxymethyl cellulose to water, mass ratio 1:1000); the blank group was sodium carboxymethyl cellulose aqueous solution (sodium carboxymethyl cellu-lose to water, mass ratio 1:1000). The anti-inflammatory activities of each compound in the target compound group, positive control group, and blank group were measured at 1, 2, 3, 4, 6, 9, 12 and 24 h after taking the drug. The experimental operation and calculation method are the same as the initial screening part.

The structures appear in SMILES notation. Marks after values point to notes of the source that are not given here. A value given as a limit tells only on which side of the number the result lay.

A word on the IC50: it is the concentration needed to halve the response being measured. A low value points to greater potency in that assay. What is called melting point is the temperature of the solid-liquid transition. In turn, `COC(=O)c1c2c(c3ccccc3c1OCC(=O)Nc1ccccc1)OC(C)(C)C=C2` [Compound 4a, Methyl 2,2-dimethyl-6-(2-oxo-2-(phenylamino)ethoxy)-2H-benzo [h] chromene-5-carboxyate] showed a melting point of 118 to 120 °C. Moreover, the IC50 at 24 h in data set [1] is more than 100 µM. In the data set with xylene-induced ear edema [2], the inhibition in vivo at 100 mg/kg is 38.6% and the “Edema Mean ± SD” value came to 4.0500 ± 0.6188 mg. In data set [3], this molecule registered a half-inhibitory concentration (IC50) of more than 100 µM.

Consider `COC(=O)c1c2c(c3ccccc3c1OCC(=O)Nc1ccc(Cl)cc1)OC(C)(C)C=C2` [Compound 4b, Methyl 6-(2-((4-chlorophenyl)amino)-2-oxoethoxy)-2,2-dimethyl-2H-benzo [h] chromene-5-carboxylate], for which the melting point fell in the range of 122 to 124 °C. This molecule also registered an IC50 at 24 h in data set [1] of more than 100 µM. In addition, in the data set with xylene-induced ear edema [2], the inhibition in vivo at 100 mg/kg came to 55.8% and the “Edema Mean ± SD” value came to 2.9167 ± 0.8029 mg. Further, in data set [3], the IC50 was more than 100 µM.

With `COC(=O)c1c2c(c3ccccc3c1OCC(=O)Nc1ccc(Br)cc1)OC(C)(C)C=C2` [Compound 4c, Methyl 6-(2-((4-bromophenyl)amino)-2-oxoethoxy)-2,2-dimethyl-2H-Benzo [h] chromene-5-carboxylate], the melting point lay within 125 to 127 °C. For the same molecule, the IC50 at 24 h in data set [1] is more than 100 µM. In the data set with xylene-induced ear edema [2], the inhibition in vivo at 100 mg/kg turned out to be 49.2% and the “Edema Mean ± SD” value worked out at 3.3500 ± 1.0579 mg. In addition, the IC50 in data set [3] was more than 100 µM.

As to `COC(=O)c1c2c(c3ccccc3c1OCC(=O)Nc1ccccc1C)OC(C)(C)C=C2` [Compound 4g, Methyl 2,2-dimethyl-6-(2-oxo-2-(o-tolylamino)ethoxy)-2H-Benzo [h] chromene-5-carboxylate], the melting point lay in the range of 122 to 124 °C. In data set [1], this molecule showed an IC50 at 24 h of more than 100 µM. In the data set on xylene-induced ear edema [2], the inhibition in vivo at 100 mg/kg is 42.4% and the “Edema Mean ± SD” value came out at 3.8000 ± 0.5066 mg. For the same molecule, the IC50 in data set [3] was more than 100 µM.

The molecule `COC(=O)c1c2c(c3ccccc3c1OCC(=O)Nc1cccc(C)c1)OC(C)(C)C=C2` [Compound 4h, Methyl 2,2-dimethyl-6-(2-oxo-2-(m-tolylamino)ethoxy)-2H-benzo [h] chromene-5-carboxylate] registered a melting point of 122 to 124 °C. For the same molecule, the IC50 at 24 h in data set [1] is more than 100 µM. In addition, in the data set with xylene-induced ear edema [2], the inhibition in vivo at 100 mg/kg was 62.4% and the “Edema Mean ± SD” value is given as 2.4833 ± 1.5464 mg. This molecule came in with an IC50 in data set [3] of more than 100 µM.

On to `COC(=O)c1c2c(c3ccccc3c1O)OC(C)(C)C=C2` [Mollugin], for which the IC50 at 24 h in data set [1] was more than 100 µM. For the same molecule, in the data set with xylene-induced ear edema [2], the inhibition in vivo at 100 mg/kg was 54% and the “Edema Mean ± SD” value was 3.0333 ± 0.9655 mg. In data set [3], this molecule gave an IC50 of more than 100 µM.

For the molecule `CC(C)Cc1ccc(C(C)C(=O)O)cc1` (stereo not drawn) [ibuprofen, reference compound], the inhibition in vivo at 100 mg/kg in the data set on xylene-induced ear edema [2] amounted to 49.8%. In addition, the “Edema Mean ± SD” value in the data set on xylene-induced ear edema [2] is given as 3.3167 ± 0.5550 mg. In addition, the Inhibition in the data set on xylene-induced ear edema [4] (100 mg/kg, time 1 h) is recorded as 22.98% ***; with xylene-induced ear edema [4] (100 mg/kg, time 2 h), 33.33% ***; with xylene-induced ear edema [4] (100 mg/kg, time 3 h), 44.95% ***; in the data set with xylene-induced ear edema [4] (100 mg/kg, time 4 h) it was 47.47%; in the data set with xylene-induced ear edema [4] (100 mg/kg, time 4 h, listed as Ibuprfen), 47.47% ***; in the data set on xylene-induced ear edema [4] (100 mg/kg, time 6 h (Table 5)) it was 44.44% ***. For the same molecule, the Inhibition is 34.60% *** in the data set on xylene-induced ear edema [4] (100 mg/kg, time 9 h); 19.95% ** with xylene-induced ear edema [4] (100 mg/kg, time 12 h); 14.65% * with xylene-induced ear edema [4] (100 mg/kg, time 24 h); 28.95% * with xylene-induced ear edema [4] (dose series, 25 mg/kg, 6 h); 32.68% ** with xylene-induced ear edema [4] (dose series, 50 mg/kg, 6 h); 43.32% *** with xylene-induced ear edema [4] (dose series, 100 mg/kg, 6 h (Table 6)).

For `Nc1ccc(O)c(C(=O)O)c1` [mesalazine, reference compound], in the data set with xylene-induced ear edema [2], the inhibition in vivo at 100 mg/kg was determined as 51.3% and the “Edema Mean ± SD” value came to 3.2167 ± 1.1067 mg.

(Values after publication PMC9695821, “Synthesis and Evaluation of NF-κB Inhibitory Activity of Mollugin Derivatives” (Molecules, 2022).)
